Earlier results in US3972859A, “Novel decapeptide amide analogs of leuteinizing hormone-releasing hormone” (Takeda Chemical Industries, Ltd., priority 1974, dated 1976).

Tested on: LH-RH activity
Settings: relative to parent LH-RH; literature (Monahan et al 1973)

[D-Ala^6 ]LH-RH
potency, % of the potency of the parent LH-RH: 350-450%
